Data as given in US10849881B2, “Octahydro-cyclobuta[1,2-c;3,4-c′]dipyrrol-2-yl” (Hoffmann-La Roche Inc., priority 2013, dated 2020).

Molecular target: ATX (human His-tagged) (Homo sapiens (Human), UniProt Q13822)
Experiment: Human ATX enzyme inhibition assay (fluorescence quenching, MR121 substrate)
Type: biochemical
Settings: 30 nM ATX, 1 μM MR121 substrate, 30° C., pH 8.0
Description: Human ATX Enzyme Inhibition Assay
ATX inhibition was measured by a fluorescence quenching assay using a specifically labeled substrate analogue (MR121 substrate). To obtain this MR121 substrate, BOC and TBS protected 6-amino-hexanoic acid (R)-3-({2-[3-(2-{2-[2-(2-amino-ethoxy)-ethoxy]-ethoxy}-ethoxy)-propionylamino]-ethoxy}-hydroxy-phosphoryloxy)-2-hydroxy-propyl ester (Ferguson et al., Org Lett 2006, 8 (10), 2023) was labeled with MR121 fluorophore (CAS 185308-24-1, 1-(3-carboxypropyl)-11-ethyl-1,2,3,4,8,9,10,11-octahydro-dipyrido[3,2-b:2′,3′-i]phenoxazin-13-ium) on the free amine of the ethanolamine side and then, after deprotection, subsequently with tryptophan on the side of the aminohexanoic acid.
Assay working solutions were made as follows:
Assay buffer (50 mM Tris-HCl, 140 mM NaCl, 5 mM KCl, 1 mM CaCl2, 1 mM MgCl2, 0.01% Triton-X-100, pH 8.0;
ATX solution: ATX (human His-tagged) stock solution (1.08 mg/mL in 20 mM bicine, pH 8.5, 0.15 M NaCl, 10% glycerol, 0.3% CHAPS, 0.02% NaN3), diluted to 1.4-2.5× final concentration in assay buffer;
MR121 substrate solution: MR121 substrate stock solution (800 μM MR121 substrate in DMSO), diluted to 2-5× final concentration in assay buffer.
Test compounds (10 mM stock in DMSO, 8 μL) were obtained in 384 well sample plates (Corning Costar #3655) and diluted with 8 μL DMSO. Row-wise serial dilutions were made by transferring 8 μL cpd solution to the next row up to row O. The compound and control solutions were mixed five times and 2 μL were transferred to 384 well assay plates (Corning Costar #3702). Then, 15 μL of 41.7 nM ATX solution was added (30 nM final concentration), mixed five times and then incubated for 15 minutes at 30° C. 10 μL of MR121 substrate solution was added (1 μM final concentration), mixed 30 times and then incubated for 15 minutes at 30′C.

Row | Structure (SMILES) | IC50 [nM]
1 | O=C(c1ccc2[nH]nnc2c1)N1C[C@@H]2[C@H](C1)[C@H]1CN(C(=O)c3ccc(-c4ccc(Cl)cc4)cn3)C[C@@H]21 [Example 1.072, [(3aR,3bS,6aR,6bS)-5-(1H-benzotriazole-5-carbonyl)-octahydro-cyclobuta[1,2-c;3,4-c′]dipyrrol-2-yl]-[5-(4-chloro-phenyl)-pyridin-2-yl]-methanone] | 6
2 | CC(C)c1ccccc1OCC(=O)N1C[C@@H]2[C@H](C1)[C@H]1CN(C(=O)c3ccc4[nH]nnc4c3)C[C@@H]21 [Example 1.009, 1-[(3aR,3bS,6aR,6bS)-5-(1H-benzotriazole-5-carbonyl)-octahydro-cyclobuta[1,2-c;3,4-c′]dipyrrol-2-yl]-2-(2-isopropyl-phenoxy)-ethanone] | 8
3 | CCOc1cc(C(=O)N2C[C@@H]3[C@H]4CN(C(=O)c5ccc6[nH]nnc6c5)C[C@H]4[C@@H]3C2)nc2cc(OC)ccc12 [Example 1.090, (1H-benzotriazol-5-yl)-[(3aS,3bR,6aS,6bR)-5-(4-ethoxy-7-methoxy-quinoline-2-carbonyl)-octahydro-cyclobuta[1,2-c;3,4-c′]dipyrrol-2-yl]-methanone] | 19
4 | COc1nc(C(=O)N2C[C@@H]3[C@H]4CN(C(=O)c5ccc6[nH]nnc6c5)C[C@H]4[C@@H]3C2)cc2ccccc12 [Example 1.046, [(3aR,3bS,6aR,6bS)-5-(1H-benzotriazole-5-carbonyl)-octahydro-cyclobuta[1,2-c;3,4-c′]dipyrrol-2-yl]-(1-methoxy-isoquinolin-3-yl)-methanone] | 28
5 | O=C(c1ccc2[nH]nnc2c1)N1C[C@@H]2[C@H](C1)[C@H]1CN(C(=O)c3cc4ccccc4[nH]3)C[C@@H]21 [Example 1.023, [(3aR,3bS,6aR,6bS)-5-(1H-benzotriazole-5-carbonyl)-octahydro-cyclobuta[1,2-c;3,4-c′]dipyrrol-2-yl]-(1H-indol-2-yl)-methanone] | 1470
6 | O=C(c1ccc2[nH]nnc2c1)N1C[C@@H]2[C@H](C1)[C@H]1CN(C(=O)c3ccc(C4CC4)c(OCC4CC4)n3)C[C@@H]21 [Example 1.087, (1H-benzotriazol-5-yl)-[(3aS,3bR,6aS,6bR)-5-(5-cyclopropyl-6-cyclopropylmethoxy-pyridine-2-carbonyl)-octahydro-cyclobuta[1,2-c;3,4-c′]dipyrrol-2-yl]-methanone] | 15.3
7 | CCOc1cc(C(=O)N2C[C@@H]3[C@H](C2)[C@H]2CN(C(=O)c4ccc5[nH]nnc5n4)C[C@@H]32)nc2ccc(C(F)(F)F)cc12 [Example 1.091, [(3aS,3bS,6aR,6bR)-5-(4-ethoxy-6-trifluoromethyl-quinoline-2-carbonyl)-octahydro-cyclobuta[1,2-c;3,4-c′]dipyrrol-2-yl]-(1H-[1,2,3]triazolo[4,5-b]pyridin-5-yl)-methanone] | 17
8 | CC(C)Oc1cc(C(=O)N2C[C@@H]3[C@H](C2)[C@H]2CN(C(=O)c4ccc5[nH]nnc5c4)C[C@@H]32)cc2ccccc12 [Example 1.052, [(3aS,3bS,6aR,6bR)-5-(1H-benzotriazole-5-carbonyl)-octahydro-cyclobuta[1,2-c;3,4-c′]dipyrrol-2-yl]-(4-isopropoxy-naphthalen-2-yl)-methanone] | 3.5
9 | O=C(c1ccc(-c2ccc(Cl)cc2)nc1)N1C[C@@H]2[C@H](C1)[C@H]1CN(C(=O)c3ccc4[nH]nnc4c3)C[C@@H]21 [Example 1.045, [(3aS,3bS,6aR,6bR)-5-(1H-benzotriazole-5-carbonyl)-octahydro-cyclobuta[1,2-c;3,4-c′]dipyrrol-2-yl]-[6-(4-chloro-phenyl)-pyridin-3-yl]-methanone] | 11
10 | CCOc1nc(C(=O)N2C[C@@H]3[C@H](C2)[C@H]2CN(C(=O)c4ccc5[nH]nnc5n4)C[C@@H]32)cc2ccccc12 [Example 1.092, [(3aS,3bS,6aR,6bR)-5-(1-ethoxy-isoquinoline-3-carbonyl)-octahydro-cyclobuta[1,2-c;3,4-c′]dipyrrol-2-yl]-(1H-[1,2,3]triazolo[4,5-b]pyridin-5-yl)-methanone] | 18
11 | COc1cc(C(=O)N2C[C@@H]3[C@H]4CN(C(=O)c5ccc6[nH]nnc6c5)C[C@H]4[C@@H]3C2)nc2ccccc12 [Example 1.029, [(3aR,3bS,6aR,6bS)-5-(1H-benzotriazole-5-carbonyl)-octahydro-cyclobuta[1,2-c;3,4-c′]dipyrrol-2-yl]-(4-methoxy-quinolin-2-yl)-methanone] | 70
12 | O=C(c1cc2cc(OC(F)(F)F)ccc2[nH]1)N1C[C@@H]2[C@H](C1)[C@H]1CN(C(=O)[C@@H]3CCc4[nH]nnc4C3)C[C@@H]21 [Example 1.019, [(3aR,3bS,6aR,6bS)-5-((R)-4,5,6,7-tetrahydro-1H-benzotriazole-5-carbonyl)-octahydro-cyclobuta[1,2-c;3,4-c′]dipyrrol-2-yl]-(5-trifluoromethoxy-1H-indol-2-yl)-methanone] | 11.5
13 | O=C(c1ccc2[nH]nnc2c1)N1C[C@@H]2[C@H](C1)[C@H]1CN(C(=O)c3ccc(OCC(F)(F)F)cn3)C[C@@H]21 [Example 1.101, (1H-benzotriazol-5-yl)-{(3aS,3bR,6aS,6bR)-5-[5-(2,2,2-trifluoro-ethoxy)-pyridine-2-carbonyl]-octahydro-cyclobuta[1,2-c;3,4-c′]dipyrrol-2-yl}-methanone] | 4430
14 | N#CCn1c(C(=O)N2C[C@@H]3[C@H]4CN(C(=O)c5ccc6[nH]nnc6c5)C[C@H]4[C@@H]3C2)cc2ccccc21 [Example 1.036, {2-[(3aR,3bS,6aR,6bS)-5-(1H-benzotriazole-5-carbonyl)-octahydro-cyclobuta[1,2-c;3,4-c′]dipyrrole-2-carbonyl]-indol-1-yl}-acetonitrile] | 130
15 | O=C(c1ccc2[nH]nnc2c1)N1C[C@@H]2[C@H](C1)[C@H]1CN(C(=O)c3cc(OCC4CC4)c(Cl)cn3)C[C@@H]21 [Example 1.086, (1H-benzotriazol-5-yl)-[(3aS,3bR,6aS,6bR)-5-(5-chloro-4-cyclopropylmethoxy-pyridine-2-carbonyl)-octahydro-cyclobuta[1,2-c;3,4-c′]dipyrrol-2-yl]-methanone] | 17
16 | O=C(c1ccc2[nH]nnc2c1)N1C[C@@H]2[C@H](C1)[C@H]1CN(C(=O)C3CCc4ccccc4O3)C[C@@H]21 (stereo partly drawn) [Example 1.042, [(3aR,3bS,6aR,6bS)-5-(1H-benzotriazole-5-carbonyl)-octahydro-cyclobuta[1,2-c;3,4-c′]dipyrrol-2-yl]-chroman-2-yl-methanone] | 632
17 | CCOc1nc(C(=O)N2C[C@@H]3[C@H]4CN(C(=O)c5ccc6[nH]nnc6c5)C[C@H]4[C@@H]3C2)cc2ccccc12 [Example 1.073, [(3aR,3bS,6aR,6bS)-5-(1H-benzotriazole-5-carbonyl)-octahydro-cyclobuta[1,2-c;3,4-c′]dipyrrol-2-yl]-(1-ethoxy-isoquinolin-3-yl)-methanone] | 3.5
18 | CS(=O)(=O)c1cc(C(=O)N2C[C@@H]3[C@H]4CN(C(=O)c5ccccc5)C[C@H]4[C@@H]3C2)cnc1OCC(F)(F)F [Example 1.111, {(3aS,3bS,6aR,6bR)-5-[5-methanesulfonyl-6-(2,2,2-trifluoro-ethoxy)-pyridine-3-carbonyl]-octahydro-cyclobuta[1,2-c;3,4-c′]dipyrrol-2-yl}-phenyl-methanone] | 330
19 | O=C(c1cnc(OCC(F)(F)F)c(Cl)c1)N1C[C@@H]2[C@H](C1)[C@H]1CN(C(=O)c3ccc4[nH]nnc4c3)C[C@@H]21 [Example 1.109, (1H-benzotriazol-5-yl)-{(3aS,3bS,6aR,6bR)-5-[5-chloro-6-(2,2,2-trifluoro-ethoxy)-pyridine-3-carbonyl]-octahydro-cyclobuta[1,2-c;3,4-c′]dipyrrol-2-yl}-methanone] | 301
20 | O=C(c1ccc2[nH]nnc2c1)N1C[C@@H]2[C@H](C1)[C@H]1CN(C(=O)c3ccc(C(F)(F)F)c(OCC4CC4)n3)C[C@@H]21 [Example 1.093, (1H-benzotriazol-5-yl)-[(3aS,3bR,6aS,6bR)-5-(6-cyclopropylmethoxy-5-trifluoromethyl-pyridine-2-carbonyl)-octahydro-cyclobuta[1,2-c;3,4-c′]dipyrrol-2-yl]-methanone] | 17
21 | O=C(c1ccc(-c2ccc(Cl)cc2)nc1)N1C[C@@H]2[C@H](C1)[C@H]1CN(C(=O)[C@@H]3CCc4[nH]nnc4C3)C[C@@H]21 [Example 1.063, [6-(4-chloro-phenyl)-pyridin-3-yl]-[(3aR,3bS,6aR,6bS)-5-((R)-4,5,6,7-tetrahydro-1H-benzotriazole-5-carbonyl)-octahydro-cyclobuta[1,2-c;3,4-c′]dipyrrol-2-yl]-methanone] | 1
